From US20220372013A2, “PIPERIDINE-2,6-DIONE DERIVATIVES AND CROHN'S DISEASE TREATING” (Tianjin Hemay Pharmaceutical Sci-Tech Co., Ltd, priority 2016, published 2022)
Values joined by “and” are separate entries in the source; they are usually repeats but may differ in a detail not shown here. Equal entries are not always repeated.

Test system: mice
Experiment: Biological Example 5: acute toxicity experiment of single oral administration in mice
Assay type: in vivo
Settings: single oral 1000 mg/Kg, Mean ± SD
Protocol: The mice were fasted one day before the experiment. On the day of the experiment, 6 mice (ICR mice, body weight of 19-21 g, three females and three males) were selected in each experiment group. First of all, one female and one male were selected to orally give 1000 mg/Kg, and observed for 5-10 minutes. If there were no obvious side effects, the remaining 4 animals were orally given the same dose, and observed for 10-15 minutes. If no animal died, the animals were placed in a box to balancedly feed for 7 days. The state was observed and the body weight was recorded daily.
Observation Indexes within 0-15 Minutes after Administration
Activity: restlessness, hyperactivity
Nervous system response: tremor, spasm, convulsion, ataxia, posture abnormality, etc.
Autonomic nerve: exophthalmos, salivation, tears, urination (hematuria), diarrhea, piloerection, breathing, etc.
State of Animal: lethargy, hyperactivity, excitement, hair loss, diarrhea, abnormal behavior, death, etc.

| SMILES | Daily Body Weight (Female mice, Day 1) | Daily Body Weight (Female mice, Day 2) | Daily Body Weight (Female mice, Day 3) | Daily Body Weight (Female mice, Day 4) | Daily Body Weight (Female mice, Day 5) | Daily Body Weight (Female mice, Day 6) | Daily Body Weight (Female mice, Day 7) | Daily Body Weight (Male mice, Day 1) | Daily Body Weight (Male mice, Day 2) | Daily Body Weight (Male mice, Day 3) | Daily Body Weight (Male mice, Day 4) | Daily Body Weight (Male mice, Day 5) | Daily Body Weight (Male mice, Day 6) | Daily Body Weight (Male mice, Day 7) | other results |
| --- | --- | --- | --- | --- | --- | --- | --- | --- | --- | --- | --- | --- | --- | --- | --- |
| CCOCCN1C(=O)CCC(N2C(=O)c3cccc(F)c3C2=O)C1=O (stereo not shown) [Example 20, 4-fluoro-2-(1-(2-ethoxyethyl)-2,6-dioxopiperidin-3-yl)isoindolin-1,3-dione] | 18.7 ± 0.4 g | 21.6 ± 1.0 g | 22.1 ± 1.0 g | 22.1 ± 1.0 g | 23.0 ± 1.4 g | 23.3 ± 0.2 g | 23.7 ± 0.8 g | 18.8 ± 1.0 g | 24.0 ± 1.1 g | 25.3 ± 1.2 g | 25.3 ± 1.2 g | 26.7 ± 1.2 g | 29.0 ± 1.1 g | 29.3 ± 0.7 g |  |
| COCCN1C(=O)CCC(N2C(=O)c3cccc(N(C)C)c3C2=O)C1=O (stereo not shown) [Example 3, 4-dimethylamino-2-(1-(2-methoxyethyl)-2,6-dioxopiperidin-3-yl)isoindolin-1,3-dione] |  |  |  |  |  |  |  |  |  |  |  |  |  |  | Daily Body Weight (Female mice, Day 1, 1000 mg/kg): 18.3 ± 0.4 g and 18.8 ± 0.4 g; Daily Body Weight (Female mice, Day 2, 1000 mg/kg): 21.7 ± 0.2 g and 22.1 ± 1.2 g; Daily Body Weight (Female mice, Day 3, 1000 mg/kg): 22.3 ± 0.2 g and 22.7 ± 0.8 g; Daily Body Weight (Female mice, Day 4, 1000 mg/kg): 22.6 ± 0.8 g and 23.0 ± 1.4 g; Daily Body Weight (Female mice, Day 5, 1000 mg/kg): 23.0 ± 1.4 g and 23.7 ± 1.9 g; Daily Body Weight (Female mice, Day 6, 1000 mg/kg): 22.6 ± 1.3 g and 24.1 ± 1.2 g; Daily Body Weight (Female mice, Day 7, 1000 mg/kg): 22.7 ± 0.4 g and 24.4 ± 1.8 g; Daily Body Weight (Male mice, Day 1, 1000 mg/kg): 18.8 ± 0.7 g and 18.0 ± 0.2 g; Daily Body Weight (Male mice, Day 2, 1000 mg/kg): 23.3 ± 0.1 g and 22.9 ± 0.3 g; Daily Body Weight (Male mice, Day 3, 1000 mg/kg): 24.3 ± 0.1 g and 24.3 ± 0.9 g; Daily Body Weight (Male mice, Day 4, 1000 mg/kg): 25.6 ± 0.7 g and 25.2 ± 1.1 g; Daily Body Weight (Male mice, Day 5, 1000 mg/kg): 26.9 ± 0.8 g and 27.0 ± 1.3 g; Daily Body Weight (Male mice, Day 6, 1000 mg/kg): 27.9 ± 0.9 g and 28.2 ± 1.9 g; Daily Body Weight (Male mice, Day 7, 1000 mg/kg): 28.6 ± 0.4 g and 28.5 ± 2.7 g |
| CSCCN1C(=O)CCC(N2C(=O)c3cccc(N)c3C2=O)C1=O (stereo not shown) [Example 11, 4-amino-2-(1-(2-methylthioethyl)-2,6-dioxopiperidin-3-yl)isoindolin-1,3-dione] | 18.1 ± 0.2 g | 21.7 ± 0.2 g | 22.4 ± 0.1 g | 22.4 ± 0.1 g | 23.5 ± 0.4 g | 23.2 ± 0.8 g | 23.2 ± 0.9 g | 19.5 ± 0.6 g | 23.7 ± 0.8 g | 25.4 ± 0.4 g | 25.4 ± 0.4 g | 27.0 ± 0.5 g | 29.0 ± 0.7 g | 29.8 ± 1.0 g |  |
| COCCN1C(=O)CCC(N2C(=O)c3ccc(F)c(N)c3C2=O)C1=O (stereo not shown) [Example 9, 4-amino-5-fluoro-2-(1-(2-methoxyethyl)-2,6-dioxopiperidin-3-yl)isoindolin-1,3-dione] | 17.5 ± 0.6 g | 22.1 ± 0.9 g | 22.1 ± 0.7 g | 22.8 ± 0.8 g | 22.8 ± 1.0 g | 22.7 ± 1.6 g | 23.6 ± 1.7 g | 18.3 ± 0.7 g | 23.6 ± 0.7 g | 24.1 ± 1.0 g | 25.9 ± 1.1 g | 27.2 ± 0.5 g | 26.9 ± 1.4 g | 27.9 ± 1.5 g |  |
| COCCCN1C(=O)CCC(N2C(=O)c3ccc(N)cc3C2=O)C1=O (stereo not shown) [Example 18, 5-amino-2-(1-(3-methoxypropyl)-2,6-dioxopiperidin-3-yl)isoindolin-1,3-dione] | 18.4 ± 0.7 g | 22.5 ± 0.8 g | 23.8 ± 1.1 g | 24.8 ± 1.5 g | 24.8 ± 0.6 g | 25.4 ± 0.7 g | 25.2 ± 1.1 g | 18.2 ± 0.4 g | 23.0 ± 0.7 g | 24.1 ± 0.4 g | 25.6 ± 0.8 g | 28.1 ± 1.1 g | 29.0 ± 1.4 g | 29.0 ± 1.0 g |  |
